These compounds were tested against Cytochrome P450 3A4 (Homo sapiens, UniProt P08684).
Sequence of Cytochrome P450 3A4 (P08684 whole entry): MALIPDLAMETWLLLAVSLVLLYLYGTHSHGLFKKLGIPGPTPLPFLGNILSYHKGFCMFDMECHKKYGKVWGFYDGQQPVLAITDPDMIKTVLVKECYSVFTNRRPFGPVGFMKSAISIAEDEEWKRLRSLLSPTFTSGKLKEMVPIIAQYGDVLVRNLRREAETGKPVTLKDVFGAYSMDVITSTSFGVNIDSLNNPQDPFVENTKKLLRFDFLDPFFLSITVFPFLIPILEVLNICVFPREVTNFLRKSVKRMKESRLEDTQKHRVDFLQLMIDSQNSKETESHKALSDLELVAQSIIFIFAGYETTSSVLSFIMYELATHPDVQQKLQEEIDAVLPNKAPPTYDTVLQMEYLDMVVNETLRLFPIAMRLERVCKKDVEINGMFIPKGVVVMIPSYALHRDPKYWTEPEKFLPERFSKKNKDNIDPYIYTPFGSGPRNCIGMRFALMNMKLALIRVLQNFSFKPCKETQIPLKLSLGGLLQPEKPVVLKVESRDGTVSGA

Row | Structure (SMILES) | IC50 [µM]
1 | CC(C)(C)C(=O)C(Oc1ccc(Cl)cc1)n1cncn1 (stereo not drawn) [TRIADIMEFON] | 9.29
2 | CC(C)(C(=O)c1cccnc1)c1cccnc1 [METYRAPONE] | 4.93
3 | CCCC1COC(Cn2cncn2)(c2ccc(Cl)cc2Cl)O1 (stereo not drawn) [PROPICONAZOLE] | 1.04

Source: ChEMBL document CHEMBL1152485, “Comparative chemometric modeling of cytochrome 3A4 inhibitory activity of structurally diverse compounds using stepwise MLR, FA-MLR, PLS, GFA, G/PLS and ANN techniques” (Eur J Med Chem, 2009)
